According to patent US11969402B2, “Compositions and methods for skin rejuvenation” (THE JOHNS HOPKINS UNIVERSITY, priority 2019, dated 2024):

Legend:
[1] = system: wound tissues of Tlr3−/− mice; assay: Microarray gene ontology analysis of wound tissue; type: in vivo, mouse; settings: Tlr3−/− mice treated with RA
From the text: Microarray analysis. RNA isolated from keratinocytes with or without Poly (I:C) (GSE92646) and mouse wound tissues from wild type (C57BL/6NJ) and Tlr3^−/− with BMS493 and RA were submitted to the JHMI Deep Sequencing & Microarray core for Affymetrix® Human Exon 1.0ST and mouse microarray chip according to manufacturer's protocols. Raw gene expression signals in the form of Affymetrix CEL files were extracted and normalized with Partek® Genomics Suite™ software using the Robust Multichip Analysis (RMA) algorithm. Genes were ranked according to fold change of the intervention, and referred to as top or bottom induced if they are at the highest fold change (top) or lowest fold change (bottom). The significance of gene expression was measured by student's t-test analysis. These datasets generated during the current study are available in the NCBI GEO repository as listed above.

[2] = system: keratinocytes of Tlr3−/− mice; assay: Western blot of stem cell markers in keratinocytes of Tlr3-/- mice; type: cell-based, mouse; settings: keratinocytes or whole skin from Tlr3−/− mice
Procedure: Adult keratinocytes isolation and cultures. For human keratinocytes, 3-mm skin biopsies were taken from areas of the occipital scalp through above IRB protocols using enzyme digestion method as described in the literature^30,31. For mouse keratinocytes, tails of adult mice were used and followed by the same protocol of human keratinocytes. Briefly, the skin fragments were incubated in 0.4% dispase II solution overnight at 4° C., allowing separation of epidermis from dermis. Then epidermis was incubated with 0.25% trypsin-EDTA (Lonza, Walkersville, MD) to isolate keratinocytes for 5 min at 37° C. Adult keratinocytes were maintained in KGM including defined growth factors (KGM-GOLD Bullet kit, #192060) (Lonza) and supplemented with 10 μM of ROCK inhibitor (Y-27632) (Cayman Chemical, #10005583) until use^32. For all in vitro experiments, primary keratinocytes were passaged at least once to eliminate contaminating other cells isolated from epidermis and used at passage 2-4 for human and passage 1-2 for mouse keratinocytes.
(§1) BMS493 treatment. BMS493 pan-RARs antagonist (1 μM) was pre-treated into keratinocytes for an hour and cells were incubated with RA (0.1 μM and 0.5 μM for human and mouse keratinocytes, respectively) or Poly (I:C) (0.1 μg per ml for both human and mouse keratinocytes) for 48 hrs. At the end of the experiment, cells were harvested for RNA and protein extraction to do further analysis including qRT-PCR and western blot.
Western blot analysis. Human and mouse keratinocytes were disrupted in M-PER lysis buffer (Thermo Fisher Scientific, #78501) containing protease inhibitors (Thermo Fisher Scientific, #87786) using ultrasonic homogenizer (20% power with 5 times every 2 seconds) to extract proteins. Then, protein concentrations were determined by BCA method (Thermo Fisher Scientific, #23225). Western blot procedures were followed by the protocol of NuPAGE system (Thermo Fisher Scientific). […] The signal intensity of protein was quantified using Image Lab software (Bio-Rad). […]

[3] = system: human scalp keratinocytes; assay: Western blot / immunostaining of ALDH1A3, KRT15, KRT19 in human keratinocytes; type: cell-based; settings: for ALDH1A3 protein: human keratinocytes, western blot
Procedure: as §1
Western blot analysis. Human and mouse keratinocytes were disrupted in M-PER lysis buffer (Thermo Fisher Scientific, #78501) containing protease inhibitors (Thermo Fisher Scientific, #87786) using ultrasonic homogenizer (20% power with 5 times every 2 seconds) to extract proteins. Then, protein concentrations were determined by BCA method (Thermo Fisher Scientific, #23225). Western blot procedures were followed by the protocol of NuPAGE system (Thermo Fisher Scientific). Briefly, 20 μg of protein samples were loaded for electrophoresis and transferred to polyvinylidene di-fluoride (PVDF) membrane (Bio-Rad, Hercules, CA). After blocking for at least an hour in 5% non-fat dry milk, the membrane was incubated with primary antibodies with appropriate dilutions (Table 2) at 4° C. overnight and followed by incubation with secondary antibodies for 1 hour at room temperature. Protein amounts were normalized to rabbit polyclonal anti-human β-actin antibody (1:1,000 dilution) (Cell Signaling Technology). Finally, proteins were visualized using SuperSignal West Pico PLUS chemiluminescent substrate kit (Thermo Fisher Scientific, #34577) and saved as image files using ChemiDoc XRS^+ (Bio-Rad). The signal intensity of protein was quantified using Image Lab software (Bio-Rad). Original images of representative blots were provided in the Source data file.
Immunofluorescence. For tissues, frozen-sections of mouse skin samples were stained with primary antibodies with appropriate dilution at 4° C. overnight, followed by incubation with goat anti-rabbit IgG labeled with Alexa Flour® 488 (Life Technologies) and 594 (Life Technologies) for 1 hour at room temperature. For cells, keratinocytes (3×10^5 cells) plated on cover-slip were fixed with 4% Paraformaldehyde (PFA) for 10 min, permeabilized in PBS including 0.5% Triton X-100 for 15 min at room temperature. After washing with PBS 3 times, cells were stained with primary antibodies overnight at 4° C., followed by incubation with goat anti-rabbit or mouse IgG labeled with Alexa Flour® 488 for 1 hour at room temperature. Cell nuclei were visualized by mounting medium including DAPI (Vector Laboratories, Burlingame, CA, H-1200). Fluorescence images were observed by fluorescence microscopy (Leica microsystems), taken pictures with ×100 (low magnification) and ×200 (high magnification), and saved as image files.

[4] = system: wound beds; assay: Immunostaining of healing wounds; type: in vivo, mouse; settings: Tlr3−/− mice
Procedure: (§2) Wound Induced Hair Neogenesis (WIHN). All experiments were followed with the present inventors' WIHN protocol^1,9. Briefly, hair was shaved and a 1.2 cm^2 full-thickness skin on the backs of 21-day old (telogen) male and female mice was removed by sterile scissors. A single treatment of RA (30 μl) (0.1 μg per mouse) (Millipore Sigma, R2625) and BMS493 (30 μl) (0.1 μg per mouse) (Cayman Chemical, #17418) was applied topically onto open wound on WD1 of Tlr3^−/− and WT mice, respectively. Poly (I:C) (50 μl) (5 μg per mouse) (Invivogen, tlrl-pic) was injected under the healed scab on WD3 of WT mice as described before^9,34. On WD20-24, numbers of regenerated hair follicles were visualized and quantified in the re-epithelialized skin by non-invasive confocal scanning laser microscopy (CSLM) (Caliber I.D., VIVASCOPE 1500) as published^1,9. As a vehicle (Control), ethanol (EtOH), dimethylsulfoxide (DMSO), or PBS was treated for RA, BMS493, and Poly (I:C), respectively.
Immunofluorescence. […] Fluorescence images were observed by fluorescence microscopy (Leica microsystems), taken pictures with ×100 (low magnification) and ×200 (high magnification), and saved as image files.

[5] = system: cells; assay: Entry of dsRNA (PIC) into cells, stain (Example 2); type: cell-based; settings: after pre-treatment with RA
[6] = system: Aldh1a2, Aldh1a3; assay: qRT-PCR of Aldh1a2 and Aldh1a3 in mouse wounds; type: in vivo
Procedure: as §2
RNA isolation and quantitative real-time PCR (qRT-PCR). For cells, total RNA was isolated from cultured keratinocytes using RNeasy Mini Kit (Qiagen, Valencia, CA, #74106) and treated with DNase I (Qiagen, #79254) to eliminate genomic DNA. For tissue, total RNA was isolated by following the manual of Direct-zol™ RNA MiniPrep Plus kit (Zymo Research, R2073). The purity and concentration of RNAs were analyzed using a NanoDrop2000c (Thermo Fisher Scientific, ND-2000c). Following reverse transcriptase reactions using high-capacity RNA to cDNA kit (Life Technologies), qRT-PCR was performed to measure target genes using TaqMan probes and Fast reaction master mix reagents (Life Technologies). Relative expression of mRNAs was analyzed by the cycle of threshold (Ct) value of target genes and quantified by normalizing to ribosomal protein large P0 (RPLP0) for human keratinocytes and to β-Actin for mouse keratinocytes or tissues as housekeeping genes using the ΔΔCt method^48.

CC1=C(/C=C/C(C)=C/C=C/C(C)=C/C(=O)O)C(C)(C)CCC1 [RA, all-trans-retinoic acid]
gene ontology categories in microarray analysis [1]: substantial enrichment of gene ontology categories pertaining to development and morphogenesis | levels of Krt19, Krt15 and activated β-catenin protein [2]: increased | ALDH1A3 protein [3]: robustly increased | Krt15 immunostaining in wounds [4]: induces prominent Krt15

Polyinosinic-polycytidylic acid [Poly (I:C)]
ALDH1A3, KRT15 and KRT19 protein expression ([3]; human keratinocytes following Poly (I:C) stimulation): upregulated | ALDH1A3 protein [3]: robustly increased | accumulation of PIC in cells [5]: much more effectively | Aldh1a3 and Aldh1a2 induction in early wounds ([6]; Tlr3−/− mice): neither is induced | Aldh1a2 transcription during wound healing ([6]; WT mice): did not show a similar pattern | Aldh1a3 transcription during wound healing ([6]; WT mice): induced
